Where “and” joins values, the source holds several entries; their conditions need not be identical. Identical values can stand only once. Toxic doses and inconclusive results are not listed. Rule for the calls: active = survival T/C of 150% or more; inactive = T/C below 125% in these data. Peptide text beside a SMILES is read from it.
Tested on: P388 leukemia ip, CD2F1 mice, survival T/C
Experiment: NCI In Vivo Anticancer Drug Screen. Data for tumor model P388 Leukemia (intraperitoneal) in CD2F1 (CDF1) mice
Conditions: endpoint: median survival time, higher = longer survival
Summary of the method: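 Mice carrying the transplanted tumor received test compound or vehicle. Survival was recorded in each group, and the value is the treated-group measurement divided by that of the vehicle-treated control group.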

[1] = dose: 12.5 mg/kg/injection, schedule: Q01DX005 (ip), vehicle: saline
[2] = dose: 25.0 mg/kg/injection, schedule: Q01DX005 (ip), vehicle: saline
[3] = dose: 100.0 mg/kg/injection, schedule: Q01DX001 (ip), vehicle: Klucel (hydroxypropylcellulose) (HPC)
[4] = dose: 200.0 mg/kg/injection, schedule: Q01DX001 (ip), vehicle: Klucel (hydroxypropylcellulose) (HPC)
[5] = dose: 400.0 mg/kg/injection, schedule: Q01DX001 (ip), vehicle: Klucel (hydroxypropylcellulose) (HPC)
[6] = dose: 50.0 mg/kg/injection, schedule: Q01DX009 (ip), vehicle: saline with Tween-80
[7] = dose: 100.0 mg/kg/injection, schedule: Q01DX009 (ip), vehicle: saline with Tween-80
[8] = dose: 200.0 mg/kg/injection, schedule: Q01DX009 (ip), vehicle: saline with Tween-80
[9] = dose: 60.0 mg/kg/injection, schedule: Q01DX005 (ip), vehicle: saline with Tween-80
[10] = dose: 120.0 mg/kg/injection, schedule: Q01DX005 (ip), vehicle: saline with Tween-80
[11] = dose: 240.0 mg/kg/injection, schedule: Q01DX005 (ip), vehicle: saline with Tween-80
[12] = dose: 50.0 mg/kg/injection, schedule: Q01DX009 (ip), vehicle: Klucel (hydroxypropylcellulose) (HPC)
[13] = dose: 100.0 mg/kg/injection, schedule: Q01DX009 (ip), vehicle: Klucel (hydroxypropylcellulose) (HPC)
[14] = dose: 50.0 mg/kg/injection, schedule: Q01DX005 (ip), vehicle: Klucel (hydroxypropylcellulose) (HPC)
[15] = dose: 12.5 mg/kg/injection, schedule: Q01DX009 (ip), vehicle: Klucel (hydroxypropylcellulose) (HPC)
[16] = dose: 25.0 mg/kg/injection, schedule: Q01DX009 (ip), vehicle: Klucel (hydroxypropylcellulose) (HPC)
[17] = dose: 60.0 mg/kg/injection, schedule: Q01DX005 (ip), vehicle: Klucel (hydroxypropylcellulose) (HPC)
[18] = dose: 120.0 mg/kg/injection, schedule: Q01DX005 (ip), vehicle: Klucel (hydroxypropylcellulose) (HPC)
[19] = dose: 240.0 mg/kg/injection, schedule: Q01DX005 (ip), vehicle: Klucel (hydroxypropylcellulose) (HPC)
[20] = dose: 100.0 mg/kg/injection, schedule: Q01DX005 (ip), vehicle: Klucel (hydroxypropylcellulose) (HPC)
[21] = dose: 200.0 mg/kg/injection, schedule: Q01DX005 (ip), vehicle: Klucel (hydroxypropylcellulose) (HPC)
[22] = dose: 25.0 mg/kg/injection, schedule: Q01DX009 (ip), vehicle: saline with Tween-80

Measured: T/C

NC(N)=NCCCC(N)C(=O)N1CCCC1C(=O)N1CCCC1C(=O)NC(CCCN=C(N)N)C(=O)O (stereo unspecified) (H-RPPR-OH; configuration not given here)
inactive: [1] 100 % of control | [2] 105 % of control | dose: 50.0 mg/kg/injection, schedule: Q01DX005 (ip), vehicle: saline 101 % of control

CC1(C)CC(=O)C(CSCS)=C(O)C1
inactive: [3] 114 % of control | [4] 99 % of control | [5] 92 % of control

Cc1c(-c2ccccc2)n(O)c(-c2ccc([N+](=O)[O-])cc2)[n+]1[O-]
inactive: [6] 99 % of control | [7] 94 % of control | [8] 94 % of control

COc1ccc(CSCc2c(CSCc3ccc(OC)c(OC)c3)c(CSCc3ccc(OC)c(OC)c3)c(CSCc3ccc(OC)c(OC)c3)c(CSCc3ccc(OC)c(OC)c3)c2CSCc2ccc(OC)c(OC)c2)cc1OC
inactive: dose: 100.0 mg/kg/injection, schedule: Q04DX003 (ip), vehicle: saline with Tween-80 96 % of control | dose: 200.0 mg/kg/injection, schedule: Q04DX003 (ip), vehicle: saline with Tween-80 90 % of control | dose: 400.0 mg/kg/injection, schedule: Q04DX003 (ip), vehicle: saline with Tween-80 102 % of control

NCc1cccn1OCc1ccccc1
inactive: [9] 100 % of control | [10] 106 % of control | [11] 104 % of control

O=C1CCC(c2n[nH]c(=S)n2-c2ccccc2)N1Cc1ccccc1 (stereo unspecified)
inactive: [9] 101 % of control | [10] 94 % of control | [11] 90 % of control

O=[N+]([O-])c1ccc(/C=C/C=C\c2ccc(S(=O)(=O)F)cc2Cl)cc1
inactive: [9] 94 % of control | [10] 96 % of control | [11] 95 % of control

O=C(O)Cc1c[nH]c2ccccc12
inactive: dose: 100.0 mg/kg/injection, schedule: Q01DX001 (ip), vehicle: saline with Tween-80 105 % of control | dose: 200.0 mg/kg/injection, schedule: Q01DX001 (ip), vehicle: saline with Tween-80 100 % of control | dose: 400.0 mg/kg/injection, schedule: Q01DX001 (ip), vehicle: saline with Tween-80 99 % of control

COc1ccc(C2C(C#N)C(=O)NC(=O)C2C#N)cc1OC (stereo unspecified)
inactive: [12] 98 % of control | [13] 107 % of control | dose: 200.0 mg/kg/injection, schedule: Q01DX009 (ip), vehicle: Klucel (hydroxypropylcellulose) (HPC) 111 % of control

CC(C)N(C(=S)Sc1c2ccccc2c(Br)c2ccccc12)C(C)C
inactive: dose: 12.5 mg/kg/injection, schedule: Q01DX005 (ip), vehicle: Klucel (hydroxypropylcellulose) (HPC) 108 % of control | dose: 25.0 mg/kg/injection, schedule: Q01DX005 (ip), vehicle: Klucel (hydroxypropylcellulose) (HPC) 102 % of control | [14] 99 % of control and 89 % of control

Nc1nccn2cnnc12
inactive: [3] 100 % of control | [4] 104 % of control | [5] 100 % of control

O=C(ON1C(=O)CCC1=O)C1CCC(CN2C(=O)C=CC2=O)CC1 (stereo unspecified)
inactive: dose: 100.0 mg/kg/injection, schedule: Q04DX002 (ip), vehicle: saline with Tween-80 120 % of control

O=C(OCCN1CCN(CCCN2c3ccccc3Sc3ccc(C(F)(F)F)cc32)CC1)C12CC3CC(CC(C3)C1)C2
inactive: dose: 3.12 mg/kg/injection, schedule: Q01DX009 (ip), vehicle: Klucel (hydroxypropylcellulose) (HPC) 105 % of control | dose: 6.25 mg/kg/injection, schedule: Q01DX009 (ip), vehicle: Klucel (hydroxypropylcellulose) (HPC) 103 % of control and 96 % of control | [15] 110 % of control and 112 % of control and 97 % of control | [16] 112 % of control | [12] 113 % of control | [13] 118 % of control

C=CC1(C)CCC2C(=CCC3C2(C)CC(O)C(O)C3(C)COC2OC(C(=O)O)C(O)C(O)C2O)C1 (stereo unspecified) (tested in a mixture with another compound)
inactive: [15] 103 % of control | [16] 100 % of control | [12] 106 % of control | [13] 100 % of control

Cc1c2c(c(C)c3c1C(=O)c1cc4c(cc1C3=O)OCO4)OC(C)(C)O2
inactive: [9] 89 % of control | [10] 94 % of control | [11] 100 % of control

NC1CCNC(O)[N-]1.NC1CCNC(O)[N-]1.[Br][Pd][Br] (stereo unspecified)
inactive: [17] 99 % of control | [18] 100 % of control | [19] 102 % of control

[Cu+2].[O-]c1ccccc1C=NCC(O)CN=Cc1ccccc1[O-] (stereo unspecified)
inactive: dose: 3.75 mg/kg/injection, schedule: Q01DX005 (ip), vehicle: saline with Tween-80 97 % of control | dose: 7.5 mg/kg/injection, schedule: Q01DX005 (ip), vehicle: saline with Tween-80 104 % of control

COc1cc(C(C)(C)C)cc(OC)c1Br
inactive: [6] 101 % of control | [7] 88 % of control | [8] 90 % of control

O=C(O)CSCCCCCCSCC(=O)O
inactive: dose: 50.0 mg/kg/injection, schedule: Q01DX009 (ip), vehicle: saline 103 % of control | dose: 100.0 mg/kg/injection, schedule: Q01DX009 (ip), vehicle: saline 103 % of control | dose: 200.0 mg/kg/injection, schedule: Q01DX009 (ip), vehicle: saline 103 % of control

O=C1C=C(N2CCOCC2)C(=O)C=C1N1CCOCC1
inactive: [14] 90 % of control | [20] 98 % of control | [21] 92 % of control

CS(=O)(=O)OCCCCC/C=C/CCCCCCC1C=CCC1 (stereo unspecified)
inactive: dose: 100.0 mg/kg/injection, schedule: Q01DX001 (ip), vehicle: saline 98 % of control | dose: 200.0 mg/kg/injection, schedule: Q01DX001 (ip), vehicle: saline 99 % of control | dose: 400.0 mg/kg/injection, schedule: Q01DX001 (ip), vehicle: saline 100 % of control

CNC(=O)c1nnn(Cc2ccc(OC)cc2)c1Cl
inactive: [14] 91 % of control | [20] 100 % of control | [21] 100 % of control

COCCN(CCOC)C1C2=C(CCCC2)OS(=O)(=O)C1c1ccccc1 (stereo unspecified)
inactive: [17] 101 % of control | [18] 105 % of control | [19] 104 % of control

CCN(CC)CCCNc1c(O)cc(C)c2sc3ccccc3c(=O)c12
inactive: [6] 94 % of control | [7] 94 % of control | [8] 100 % of control

CSc1nc(SC)c2c(C)cn(C3OC(C)C(O)C(O)C3O)c2n1 (stereo unspecified)
inactive: dose: 100.0 mg/kg/injection, schedule: Q01DX005 (ip), vehicle: saline with Tween-80 94 % of control | dose: 200.0 mg/kg/injection, schedule: Q01DX005 (ip), vehicle: saline with Tween-80 93 % of control | dose: 400.0 mg/kg/injection, schedule: Q01DX005 (ip), vehicle: saline with Tween-80 97 % of control

CCC(C)c1cnc(CC(C)C)c(=O)n1O (stereo unspecified)
inactive: dose: 6.25 mg/kg/injection, schedule: Q01DX009 (ip), vehicle: saline with Tween-80 90 % of control | dose: 12.5 mg/kg/injection, schedule: Q01DX009 (ip), vehicle: saline with Tween-80 91 % of control | [22] 94 % of control | [6] 100 % of control

O=S(CCCl)c1ccccc1 (stereo unspecified)
inactive: [22] 96 % of control | [6] 97 % of control | [7] 101 % of control | [8] 90 % of control

NC1=NC(O)C=C1 (stereo unspecified)
inactive: [1] 105 % of control | [2] 107 % of control

From PubChem BioAssay AID330 (DTP/NCI, 2004)
